Values joined by “and” are separate entries in the source; they are usually repeats but may differ in a detail not shown here. Equal values may be shown once. Toxic doses and inconclusive results are not listed.
Test system: BDF1 mice, P388 leukemia ip, median survival T/C
Assay: NCI In Vivo Anticancer Drug Screen. Data for tumor model P388 Leukemia (intraperitoneal) in B6D2F1 (BDF1) mice
Conditions: endpoint: median survival time, higher = longer survival
Experimental: The antitumor activity of compounds was measured in mice bearing transplantable tumors. Survival or tumor size were measured and the results are expressed as the measurement made in the treated group (T) divided by the measurement made in the vehicle treated control group (C). The tumor model used in this assay is P388 Leukemia (intraperitoneal) in B6D2F1 (BDF1) mice

[1] = dose: 100.0 mg/kg/injection, schedule: Q04DX003 (ip), vehicle: saline with Tween-80
[2] = dose: 200.0 mg/kg/injection, schedule: Q04DX003 (ip), vehicle: saline with Tween-80
[3] = dose: 400.0 mg/kg/injection, schedule: Q04DX003 (ip), vehicle: saline with Tween-80
[4] = dose: 25.0 mg/kg/injection, schedule: Q01DX009 (ip), vehicle: Klucel (hydroxypropylcellulose) (HPC)
[5] = dose: 50.0 mg/kg/injection, schedule: Q04DX003 (ip), vehicle: Klucel (hydroxypropylcellulose) (HPC)
[6] = dose: 100.0 mg/kg/injection, schedule: Q01DX009 (ip), vehicle: Klucel (hydroxypropylcellulose) (HPC)
[7] = dose: 100.0 mg/kg/injection, schedule: Q04DX003 (ip), vehicle: Klucel (hydroxypropylcellulose) (HPC)
[8] = dose: 50.0 mg/kg/injection, schedule: Q01DX009 (ip), vehicle: Klucel (hydroxypropylcellulose) (HPC)
[9] = dose: 400.0 mg/kg/injection, schedule: Q01DX009 (ip), vehicle: Klucel (hydroxypropylcellulose) (HPC)
[10] = dose: 100.0 mg/kg/injection, schedule: Q01DX009 (ip), vehicle: saline with Tween-80
[11] = dose: 50.0 mg/kg/injection, schedule: Q01DX009 (ip), vehicle: saline with Tween-80
[12] = dose: 5.0 mg/kg/injection, schedule: Q04DX003 (ip), vehicle: saline
[13] = dose: 10.0 mg/kg/injection, schedule: Q04DX003 (ip), vehicle: saline
[14] = dose: 20.0 mg/kg/injection, schedule: Q04DX003 (ip), vehicle: saline
[15] = dose: 200.0 mg/kg/injection, schedule: Q01DX009 (ip), vehicle: Klucel (hydroxypropylcellulose) (HPC)
[16] = dose: 200.0 mg/kg/injection, schedule: Q04DX003 (ip), vehicle: Klucel (hydroxypropylcellulose) (HPC)
[17] = dose: 200.0 mg/kg/injection, schedule: Q01DX009 (ip), vehicle: saline with Tween-80

CC(=O)CC(=O)Nc1ccc([N+](=O)[O-])cc1
T/C (dose: 50.0 mg/kg/injection, schedule: Q04DX003 (ip), vehicle: saline with Tween-80): 109 % of control
T/C [1]: 109 % of control
T/C [2]: 95 % of control
T/C [3]: 100 % of control

CC1=CC23C(COC(=O)C24CO4)C(C(=O)O)=CC3C1C (stereo not drawn) (tested in a mixture with another compound)
T/C (dose: 0.06 mg/kg/injection, schedule: Q01DX009 (ip), vehicle: Klucel (hydroxypropylcellulose) (HPC)): 105 % of control
T/C (dose: 0.13 mg/kg/injection, schedule: Q01DX009 (ip), vehicle: Klucel (hydroxypropylcellulose) (HPC)): 100 % of control
T/C (dose: 0.25 mg/kg/injection, schedule: Q01DX009 (ip), vehicle: Klucel (hydroxypropylcellulose) (HPC)): 105 % of control and 116 % of control

N#CC(C#N)=Cc1cccc([N+](=O)[O-])c1
T/C [4]: 90 % of control and 115 % of control
T/C [5]: 113 % of control
T/C [6]: 95 % of control
T/C [7]: 113 % of control

CCC(C)NC(=S)NN (stereo not drawn)
T/C (dose: 10.0 mg/kg/injection, schedule: Q01DX009 (ip), vehicle: saline with Tween-80): 95 % of control
T/C (dose: 20.0 mg/kg/injection, schedule: Q01DX009 (ip), vehicle: saline with Tween-80): 100 % of control
T/C (dose: 40.0 mg/kg/injection, schedule: Q01DX009 (ip), vehicle: saline with Tween-80): 95 % of control

COC1OC(COS(=O)(=O)c2ccc(C)cc2)C2OC(C)(C)OC12 (stereo not drawn)
T/C [8]: 104 % of control
T/C [6]: 90 % of control
T/C [9]: 90 % of control

C[C@]12CC[C@H]3[C@@H](CCC4=CC(=O)CC[C@@]43C)[C@@H]1CC[C@@H]2OC(=O)Cc1ccc(N(CCCl)CCCl)cc1
T/C (dose: 64.0 mg/kg/injection, schedule: Q01DX009 (ip), vehicle: Klucel (hydroxypropylcellulose) (HPC)): 104 % of control and 105 % of control
T/C [10]: 113 % of control
T/C (dose: 128.0 mg/kg/injection, schedule: Q01DX009 (ip), vehicle: Klucel (hydroxypropylcellulose) (HPC)): 111 % of control and 123 % of control
T/C (dose: 256.0 mg/kg/injection, schedule: Q01DX009 (ip), vehicle: Klucel (hydroxypropylcellulose) (HPC)): 157 % of control
T/C (dose: 264.0 mg/kg/injection, schedule: Q04DX003 (ip), vehicle: saline with Tween-80): 120 % of control
T/C (dose: 400.0 mg/kg/injection, schedule: Q01DX009 (ip), vehicle: saline with Tween-80): 209 % of control
T/C [3]: 154 % of control
T/C (dose: 512.0 mg/kg/injection, schedule: Q01DX009 (ip), vehicle: Klucel (hydroxypropylcellulose) (HPC)): 115 % of control
T/C (dose: 600.0 mg/kg/injection, schedule: Q04DX003 (ip), vehicle: saline with Tween-80): 200 % of control

N#Cc1cnc(=S)n(-c2cc(C(F)(F)F)cc(C(F)(F)F)c2)c1N
T/C [11]: 101 % of control
T/C [10]: 115 % of control

CC1(c2ccc(Cl)cc2)NC(=O)NC1=O (stereo not drawn)
T/C (dose: 200.0 mg/kg/injection, schedule: Q04DX003 (ip), vehicle: saline sonified): 91 % of control
T/C (dose: 400.0 mg/kg/injection, schedule: Q04DX003 (ip), vehicle: saline sonified): 87 % of control

O=NN(CCF)C(=O)NCCF
T/C (dose: 0.25 mg/kg/injection, schedule: Q01DX009 (ip), vehicle: saline): 120 % of control
T/C (dose: 0.5 mg/kg/injection, schedule: Q04DX003 (ip), vehicle: saline): 120 % of control
T/C (dose: 1.0 mg/kg/injection, schedule: Q01DX009 (ip), vehicle: saline): 150 % of control and 172 % of control
T/C (dose: 1.0 mg/kg/injection, schedule: Q04DX003 (ip), vehicle: saline): 104 % of control
T/C (dose: 2.0 mg/kg/injection, schedule: Q01DX009 (ip), vehicle: saline): 268 % of control
T/C (dose: 2.0 mg/kg/injection, schedule: Q04DX003 (ip), vehicle: saline): 175 % of control
T/C (dose: 3.3 mg/kg/injection, schedule: Q04DX003 (ip), vehicle: saline): 165 % of control
T/C [12]: 235 % of control
T/C (dose: 7.5 mg/kg/injection, schedule: Q04DX003 (ip), vehicle: saline): 95 % of control
T/C [13]: 300 % of control
T/C [14]: 110 % of control

CSC(N)=Nc1cccc2c1CCCC2
T/C (dose: 50.0 mg/kg/injection, schedule: Q04DX003 (ip), vehicle: saline): 108 % of control
T/C (dose: 100.0 mg/kg/injection, schedule: Q04DX003 (ip), vehicle: saline): 108 % of control

O=C1CCCc2ccccc2N1
T/C [4]: 100 % of control
T/C [8]: 95 % of control
T/C [6]: 91 % of control
T/C [7]: 95 % of control
T/C [15]: 91 % of control
T/C [16]: 100 % of control
T/C [9]: 91 % of control
T/C (dose: 400.0 mg/kg/injection, schedule: Q04DX003 (ip), vehicle: Klucel (hydroxypropylcellulose) (HPC)): 100 % of control

CCOC(=O)c1c(C)c2c(n1C)CCc1cn[nH]c1-2
T/C [8]: 103 % of control
T/C [6]: 120 % of control
T/C [15]: 106 % of control

Cc1ccc(S(=O)(=O)NN=C(c2ccccc2)c2ccccc2)cc1
T/C (dose: 12.5 mg/kg/injection, schedule: Q04DX003 (ip), vehicle: Klucel (hydroxypropylcellulose) (HPC)): 98 % of control
T/C (dose: 25.0 mg/kg/injection, schedule: Q04DX003 (ip), vehicle: Klucel (hydroxypropylcellulose) (HPC)): 103 % of control
T/C [5]: 103 % of control
T/C [7]: 97 % of control
T/C [16]: 97 % of control

CC(=O)NC(C(=O)N/N=C(\C)c1ccccc1)C(=O)N/N=C(\C)c1ccccc1
T/C [11]: 98 % of control
T/C [10]: 101 % of control
T/C [17]: 89 % of control

Cc1c(Cl)cccc1NC(=O)Nc1cccc2ccccc12
T/C [1]: 91 % of control
T/C [2]: 100 % of control
T/C [3]: 108 % of control

CC1(C)N=C(N)N=C(N)N1c1cccc(OCCOc2cccc(NC(=O)CBr)c2)c1
T/C (dose: 5.0 mg/kg/injection, schedule: Q01DX009 (ip), vehicle: saline): 90 % of control and 100 % of control
T/C [12]: 100 % of control
T/C (dose: 10.0 mg/kg/injection, schedule: Q01DX009 (ip), vehicle: saline): 95 % of control and 100 % of control
T/C [13]: 100 % of control
T/C (dose: 13.0 mg/kg/injection, schedule: Q01DX009 (ip), vehicle: saline): 104 % of control and 110 % of control
T/C [14]: 100 % of control
T/C (dose: 45.0 mg/kg/injection, schedule: Q01DX009 (ip), vehicle: saline): 100 % of control

CC(C)CCCCCCCCCCCCC(=O)NCC(=O)NC1C(C)OC(Nc2ncnc3nc[nH]c23)C(O)C1O (stereo not drawn)
T/C (dose: 432.0 micrograms/kg/injection, schedule: Q04DX003 (ip), vehicle: saline): 110 % of control

O=[N+]([O-])c1cc([N+](=O)[O-])c(Br)cc1Cl
T/C (dose: 5.0 mg/kg/injection, schedule: Q01DX009 (ip), vehicle: Klucel (hydroxypropylcellulose) (HPC)): 101 % of control
T/C (dose: 10.0 mg/kg/injection, schedule: Q01DX009 (ip), vehicle: Klucel (hydroxypropylcellulose) (HPC)): 110 % of control
T/C (dose: 20.0 mg/kg/injection, schedule: Q01DX009 (ip), vehicle: Klucel (hydroxypropylcellulose) (HPC)): 112 % of control

O=C(/C=C/c1ccc(OCc2ccccc2)cc1)c1cccc(Cl)c1
T/C [11]: 105 % of control
T/C [10]: 96 % of control
T/C [17]: 89 % of control

CCCCCCCCCOc1ccc(C=O)cc1OC
T/C (dose: 100.0 mg/kg/injection, schedule: Q01DX001 (ip), vehicle: saline sonified): 100 % of control
T/C (dose: 200.0 mg/kg/injection, schedule: Q01DX001 (ip), vehicle: saline sonified): 90 % of control
T/C (dose: 400.0 mg/kg/injection, schedule: Q01DX001 (ip), vehicle: saline sonified): 100 % of control

C=C1C(=O)O[C@H]2[C@H]1[C@H](OC(=O)/C(C)=C\C)C[C@]1(CO1)[C@@H]1[C@H](OC(C)=O)C=C(C)[C@]21O
T/C (dose: 10.0 mg/kg/injection, schedule: Q01DX010 (ip), vehicle: steriod suspending solution): 100 % of control
T/C (dose: 20.0 mg/kg/injection, schedule: Q01DX010 (ip), vehicle: steriod suspending solution): 109 % of control
T/C (dose: 40.0 mg/kg/injection, schedule: Q01DX010 (ip), vehicle: steriod suspending solution): 118 % of control

O=C(NC(C(=O)O)c1ccccc1)OCc1ccccc1 (stereo not drawn)
T/C [1]: 104 % of control
T/C [2]: 109 % of control
T/C [3]: 100 % of control
